Results: ChEMBL document CHEMBL5338803, “Novel Medicinal Chemistry Strategies Targeting CDK5 for Drug Discovery” (J Med Chem, 2023)
Blank lines part the entries; values can stand above or below the compound they belong to.

Legend:
SH-SY5Y = assay: Neuroprotective activity against amyloid beta (25 to 35)-induced cell damage in human SH-SY5Y cells assessed as survival rate at 10 uM measured after 72 hrs by MTT assay; assay type: functional; conditions: read-out: Survival
CDK2/Cyclin A1 = CDK2/Cyclin A1 (Homo sapiens, UniProt P24941); assay: Inhibition of CDK2/cyclin A (unknown origin); assay type: protein-complex assay
[1] = Selectivity ratio of IC50 for CDK5 (unknown origin) to IC50 for CDK2 (unknown origin)
[2] = target: Cyclin-dependent kinase 5/CDK5 activator 1 (Homo sapiens, UniProt Q00535); assay: Inhibition of CDK5/p25 (unknown origin); assay type: protein-complex assay
[3] = target: Cyclin-dependent kinase 5 (Homo sapiens) (UniProt Q00535); assay: Binding affinity to CDK5 (unknown origin) assessed as change in gibbs free energy
[4] = target: Cyclin-dependent kinase 5 (Homo sapiens) (UniProt Q00535); assay: Inhibition of CDK5 (unknown origin) at 10 uM relative to control
[5] = target: Dual specificity tyrosine-phosphorylation-regulated kinase 1A (Homo sapiens) (UniProt Q13627); assay: Inhibition of DYRK1A (unknown origin) at 10 uM relative to control
[6] = Selectivity index, ratio of IC50 for CDK2/cyclin A (unknown origin) to IC50 for CDK5/p25 (unknown origin)
[7] = target: Glycogen synthase kinase-3 beta (Homo sapiens, UniProt P49841); assay: Inhibition of GSK3beta (unknown origin)
Glycogen synthase kinase-3 beta, sequence (P49841 whole entry): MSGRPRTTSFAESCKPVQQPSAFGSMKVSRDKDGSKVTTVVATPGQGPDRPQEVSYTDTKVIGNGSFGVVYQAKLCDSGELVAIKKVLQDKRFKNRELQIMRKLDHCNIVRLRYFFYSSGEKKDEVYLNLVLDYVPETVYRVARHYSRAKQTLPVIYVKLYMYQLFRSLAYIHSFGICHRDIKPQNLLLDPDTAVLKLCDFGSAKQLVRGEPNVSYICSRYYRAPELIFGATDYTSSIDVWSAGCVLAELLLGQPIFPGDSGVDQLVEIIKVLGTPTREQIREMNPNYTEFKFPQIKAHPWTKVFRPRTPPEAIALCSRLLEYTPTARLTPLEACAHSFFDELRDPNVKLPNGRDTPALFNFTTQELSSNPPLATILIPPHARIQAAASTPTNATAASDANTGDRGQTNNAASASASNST

Cyclin-dependent kinase 5 (Homo sapiens), sequence (Q00535 whole entry, looked up): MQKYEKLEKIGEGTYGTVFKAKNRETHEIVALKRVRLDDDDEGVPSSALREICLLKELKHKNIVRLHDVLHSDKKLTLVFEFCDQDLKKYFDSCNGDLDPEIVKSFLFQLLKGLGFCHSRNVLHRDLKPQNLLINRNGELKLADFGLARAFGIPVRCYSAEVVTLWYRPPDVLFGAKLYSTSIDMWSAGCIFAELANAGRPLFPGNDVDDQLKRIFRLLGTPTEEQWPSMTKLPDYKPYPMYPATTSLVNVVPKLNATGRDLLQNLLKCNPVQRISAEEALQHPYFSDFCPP
Cyclin-dependent kinase 5/CDK5 activator 1, sequence (Q00535 whole entry): as the sequence (Q00535 whole entry, looked up) above
Cyclin-dependent kinase 5/CDK5 activator 1, sequence (Q15078 whole entry, further chain): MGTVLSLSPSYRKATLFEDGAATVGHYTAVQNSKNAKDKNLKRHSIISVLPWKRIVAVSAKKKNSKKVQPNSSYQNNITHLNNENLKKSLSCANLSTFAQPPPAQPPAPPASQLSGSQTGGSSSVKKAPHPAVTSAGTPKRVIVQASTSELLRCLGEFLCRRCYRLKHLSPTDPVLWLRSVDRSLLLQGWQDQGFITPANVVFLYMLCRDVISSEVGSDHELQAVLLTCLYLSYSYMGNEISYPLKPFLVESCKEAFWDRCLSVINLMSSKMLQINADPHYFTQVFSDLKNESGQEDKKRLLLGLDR

Compound: O=C(C1=C(O)C(=O)N(CCc2c[nH]c3ccccc23)C1c1cccnc1)c1ccc(Cl)cc1 (centres undefined)
viability at 10 µM (SH-SY5Y): 82.8%

Compound: CN1CCC(N(CC(=O)O)c2ccc3cnc(Nc4ccc(-n5ccc(CO)n5)cc4F)cc3n2)CC1
IC50 (CDK2/Cyclin A1): 444 nM | Ratio IC50 [1]: 100

Compound: C[C@@]12CCC[C@H]1[C@@H]1CC[C@H]3C[C@H](N)CC[C@]3(C)[C@H]1CC2
IC50 [2]: 6000 nM

IC50 (CDK2/Cyclin A1): > 100000 nM | Ratio IC50 [1]: 100
Compound: O=C(NOc1ccccc1)Nc1csc(Cc2c(Cl)cccc2Cl)n1

Compound: COc1ccc(OCC(=O)Nc2cccc(-c3nc4ccccc4c(=O)o3)c2)cc1
viability at 10 µM (SH-SY5Y): 82.9%

Compound: CN1C(=O)COc2ccc(-c3nn(Cc4ccccc4)c(=O)c4ccccc34)cc21
viability at 10 µM (SH-SY5Y): 80.1%

Compound: C[C@]12CC[C@H]3[C@@H](CCC4=CC(=O)CC[C@@]43C)[C@@H]1CC[C@@H]2C(=O)COS(=O)(=O)c1ccc(Br)cc1
IC50 [2]: 6000 nM

IC50 (CDK2/Cyclin A1): 63 nM | IC50 [2]: 9 nM | deltaG [3]: -23 kcal/mol
Compound: COc1ccc(CC(=O)Cc2ccn([C@H]3C[C@@H](C(N)=O)C3)c2)cc1

inhibition [4]: 98% | inhibition [5]: 95%
Compound: NS(=O)(=O)c1cccc(Nc2ncc3c(n2)CCCC3)c1

Ratio IC50 [6]: 10
Compound: O=C(Nc1csc(Cc2c(Cl)cccc2Cl)n1)NN1CCOCC1

Compound: O=c1oc2cc(O)cc(O)c2c2ccccc12
inhibition [4]: 62% | inhibition [5]: 92.2%

Compound: NC(=O)CN1C(=O)C(O)(CC(=O)c2ccc3ccccc3c2)c2ccccc21 (centres undefined)
viability at 10 µM (SH-SY5Y): 82.6%

IC50 [7]: 22 nM
Compound: O=C(Nc1cc(Br)ccn1)Nc1cccc2c1C1CCCCN1C2=O (centres undefined)
